Assay results reported in PubChem BioAssay (NCI).
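Exposure lasted 48 hours, with cells grown in 96-well plates and compounds tested at five concentrations. Here, GI50 denotes the concentration required for 50% inhibition of growth. TGI: concentration producing complete growth inhibition.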

What was measured:
Experiment in all cases: NCI anticancer screen, dose series, 48 h
[1] = system: U251 CNS
[2] = system: CAKI-1 renal
[3] = system: SK-MEL-28 melanoma
[4] = system: SF-539 CNS
[5] = system: NCI-H23 lung
[6] = system: NCI-H522 lung
[7] = system: SF-295 CNS
[8] = system: M14 melanoma
[9] = system: SF-268 CNS
[10] = system: NCI-H226 lung
[11] = system: HCT-15 colon
[12] = system: MALME-3M melanoma
[13] = system: A549 NSCLC
[14] = system: OVCAR-3 ovarian
[15] = system: HT29 colon
[16] = system: UO-31 renal
[17] = system: BT-549 breast
[18] = system: HOP-62 NSCLC
[19] = system: EKVX NSCLC
[20] = system: COLO 205 colon
[21] = system: PC-3 prostate
[22] = system: HOP-92 NSCLC
[23] = system: HCC-2998 colon
[24] = system: ACHN renal
[25] = system: SK-MEL-2 melanoma
[26] = system: NCI-H460 lung
[27] = system: MOLT-4 leukemia
[28] = system: OVCAR-4 ovarian
[29] = system: UACC-257 melanoma

Compound `Oc1cc(N2CC2)c(O)cc1N1CC1` has a GI50 [1] of 577 nM, a TGI [1] of 10700 nM and a GI50 [2] of 86 nM. The TGI [2] was 332 nM, the GI50 [3] was 1710 nM and the TGI [3] was 4200 nM. The GI50 [4] was 389 nM, the TGI [4] was 2380 nM and the GI50 [5] was 396 nM. For the same compound, the TGI [5] was 1800 nM, the GI50 [6] was 287 nM and the TGI [6] was 1480 nM. It also gave a GI50 [7] of 377 nM, a TGI [7] of 5320 nM and a GI50 [8] of 511 nM. The TGI [8] was 1930 nM, the GI50 [9] was 585 nM and the TGI [9] was 7970 nM. For the same compound, the GI50 [10] was 1630 nM, the TGI [10] was 4590 nM and the GI50 [11] was 727 nM. It also gave a TGI [11] of 10400 nM, a GI50 [12] of 217 nM and a TGI [12] of 550 nM. For the same compound, the GI50 [13] was 783 nM, the TGI [13] was 10700 nM and the GI50 [14] was 839 nM. The TGI [14] was 4460 nM, the GI50 [15] was 384 nM and the TGI [15] was 6790 nM. For the same compound, the GI50 [16] was 164 nM, the TGI [16] was 818 nM and the GI50 [17] was 1840 nM. The TGI [17] was 5960 nM, the GI50 [18] was 632 nM and the TGI [18] was 2990 nM. For the same compound, the GI50 [19] was 2620 nM, the TGI [19] was 9870 nM and the GI50 [20] was 1020 nM. The TGI [20] was 2210 nM, the GI50 [21] was 1850 nM and the TGI [21] was 14600 nM. It also gave a GI50 [22] of 2330 nM, a TGI [22] of 7900 nM and a GI50 [23] of 1490 nM. For the same compound, the TGI [23] was 2980 nM, the GI50 [24] was 219 nM and the TGI [24] was 590 nM. The GI50 [25] was 1460 nM, the TGI [25] was 4550 nM and the GI50 [26] was 210 nM. The TGI [26] was 5150 nM, the GI50 [27] was 591 nM and the TGI [27] was 7890 nM. For the same compound, the GI50 [28] was 2280 nM, the TGI [28] was 8900 nM and the GI50 [29] was 851 nM. The TGI [29] was 2980 nM.
